Laboratory results taken from publication PMC7734618 (Bioorganic & medicinal chemistry, 2008).
Structures can show the parent of a compound that is named as a salt.

Columns and labels:
Type in all cases: cell-based
[1] = Cytotoxicity in PHA-stimulated human PBM cells; conditions: uninfected PHA-stimulated PBM cells
in vitro = conditions: human, CEM cells (T-lymphoblastoid cell line)
HIV-1LAI = assay: Anti-HIV activity against HIV-1LAI in human PBM cells; conditions: HIV-1LAI in PBM cells
[2] = Cytotoxicity in Vero cells; conditions: African green monkey, Vero cells (kidney)

SMILES	IC50 at 3 days (in vitro)	IC50 at 4 days [1]	Anti-HIV activity compared with parent drug DOT (in words) (HIV-1LAI)	IC50 at 2 days [2]
CC(=O)OC[C@@H]1OC[C@H](n2cc(C)c(=O)[nH]c2=O)O1 [Compound 1, Dioxolane thymine-5′-O-acetic ester]	–	> 100 µM	–	–
CCCCC(=O)OC[C@@H]1OC[C@H](n2cc(C)c(=O)[nH]c2=O)O1 [Compound 2, Dioxolane thymine-5′-O-valeric ester]	> 100 µM	> 100 µM	–	–
CCCCCCCC(=O)OC[C@@H]1OC[C@H](n2cc(C)c(=O)[nH]c2=O)O1 [Compound 3, Dioxolane thymine-5′-O-octanotic ester]	> 100 µM	> 100 µM	–	–
CCCCCCCCCCCC(=O)OC[C@@H]1OC[C@H](n2cc(C)c(=O)[nH]c2=O)O1 [Compound 4, Dioxolane thymine-5′-O-dodecanoic ester]	> 100 µM	> 100 µM	–	–
CCCCCCCCCCCCCCCC(=O)OC[C@@H]1OC[C@H](n2cc(C)c(=O)[nH]c2=O)O1 [Compound 5, Dioxolane thymine-5′-O-palmitic ester]	> 100 µM	> 100 µM	–	–
Cc1cn([C@H]2CO[C@@H](COC(=O)C3CC3)O2)c(=O)[nH]c1=O [Compound 7, Dioxolane thymine-5′-O-cyclopropanecarboxylic ester]	> 100 µM	> 100 µM	–	–
Cc1cn([C@H]2CO[C@@H](COC(=O)C3CCCCC3)O2)c(=O)[nH]c1=O [Compound 8, Dioxolane thymine-5′-O-cyclohexanecarboxylic ester]	> 100 µM	> 100 µM	–	–
Cc1cn([C@H]2CO[C@@H](COCOC(=O)C(C)(C)C)O2)c(=O)[nH]c1=O [Compound 9, Dioxolane thymine-5′-O-pivaloyloxymethyl ether]	> 100 µM	> 100 µM	slightly reduced antiviral activity	–
Cc1cn([C@H]2CO[C@@H](COC(=O)[C@@H](N)Cc3ccccc3)O2)c(=O)[nH]c1=O [Compound 14, Dioxolane thymine-5′-O-l-phenylalanyl ester hydrochloride]	> 100 µM	> 100 µM	–	> 100 µM
Cc1cn([C@H]2CO[C@@H](COC(=O)[C@H](N)Cc3ccccc3)O2)c(=O)[nH]c1=O [Compound 15, Dioxolane thymine-5′-O-d-phenylalanyl ester hydrochloride]	> 100 µM	> 100 µM	–	> 100 µM

Second part, led by results:

IC50 at 3 days (in vitro)	SMILES	IC50 at 4 days [1]	Anti-HIV activity compared with parent drug DOT (in words) (HIV-1LAI)	IC50 at 2 days [2]
> 100 µM	Cc1cn([C@H]2CO[C@@H](COC(=O)C(C)(C)C)O2)c(=O)[nH]c1=O [Compound 6, Dioxolane thymine-5′-O-pivalic ester]	> 100 µM	–	–
> 100 µM	Cc1cn([C@H]2CO[C@@H](COC(=O)CN)O2)c(=O)[nH]c1=O [Compound 11, Dioxolane thymine-5′-O-glycyl ester hydrochloride]	> 100 µM	–	–
> 100 µM	Cc1cn([C@H]2CO[C@@H](COC(=O)[C@H](C)N)O2)c(=O)[nH]c1=O [Compound 13, Dioxolane thymine-5′-O-l-alanyl ester hydrochloride]	> 100 µM	–	–
> 100 µM	Cc1cn([C@H]2CO[C@@H](COC(=O)[C@@H](N)C(C)C)O2)c(=O)[nH]c1=O [Compound 16, Dioxolane thymine-5′-O-l-valyl ester hydrochloride]	> 100 µM	–	> 100 µM
> 100 µM	Cc1cn([C@H]2CO[C@@H](COC(=O)[C@H](N)C(C)C)O2)c(=O)[nH]c1=O [Compound 17, Dioxolane thymine-5′-O-d-valyl ester hydrochloride]	> 100 µM	–	> 100 µM
> 100 µM	Cc1cn([C@H]2CO[C@@H](COC(=O)[C@@H](N)CC(C)C)O2)c(=O)[nH]c1=O [Compound 18, Dioxolane thymine-5′-O-l-leucinyl ester hydrochloride]	> 100 µM	–	–
